{"source": "patent US20230064324A1", "about": "“NEW USES FOR STEVIOL” (SUNTORY HOLDINGS LIMITED, priority 2019, published 2023)", "key": {"GRP78 [1]": {"system": "GRP78", "experiment": "GRP78 expression in adipocytes under endoplasmic reticulum stress (RT-PCR)", "type": "cell-based, Human", "details": "pretreatment 24 h, tunicamycin 0.65 μM 24 h", "experimental": "(§1) Adipocytes were prepared as follows. Normal human subcutaneous preadipocytes were reconstituted in a T75 flask using a growth medium (PBM-2 medium, Cat. No. PT-8002, Lonza, supplemented with 10% FBS, 2 mM L-glutamine, 50 μg/mL gentamycin, and 37 ng/mL amphotericin-B), and precultured for 3 days in a CO2 incubator (37° C., 5% CO2; the same holds true for the description below).\n(§2) The lysate was preserved at −80° C. until use.\n(§3) The internal standard gene used was GAPDH gene."}, "GRP78 [2]": {"system": "GRP78", "experiment": "GRP78 expression in pancreatic cells (βTC6) under endoplasmic reticulum stress (RT-PCR)", "type": "cell-based, Mouse", "details": "pretreatment 4 h, tunicamycin 0.16 μM 24 h", "experimental": "as §2, §3"}, "PC12 cells (clone HS)": {"system": "PC12 cells (clone HS)", "experiment": "Neurite elongation-promoting effect on PC12 cells (neurite length per cell, Operetta CLS)", "type": "cell-based, Rat", "details": "for Relative neurite length (%): 3 days, negative control=100%", "experimental": "PC12 cells (clone HS) were precultured using a growth medium in the same manner as in Example 1. […] The cells thus cultured were subjected to cell membrane staining using Cell Membrane Stain attached to Neurite Outgrowth Staining Kit (Thermo Fisher Scientific Inc.) and nuclear staining using Hoechst 33342 (Cat. No. H3570). Specifically, the medium was replaced with 100 μL of a fixative and staining solution (prepared by adding a 1/1000 amount each of Cell Membrane Stain (1000×) and Hoechst 33342 and a 1/25 amount of a formaldehyde solution (Cat. No. 061-00416, FUJIFILM Wako Pure Chemical Corp.) to DPBS (++) (Cat. No. 14040133, Thermo Fisher Scientific Inc.)), followed by incubation for 20 minutes in a CO2 incubator (5% CO2, 37° C., humid). […] Photographing and quantitative analysis were carried out using Operetta CLS (Perkin Elmer, Inc.), and a neurite length per cell was calculated. Nine fields of view at the center of each well were photographed using a 10× objective lens. A test medium supplemented with 50 ng/mL NGF was used as a positive control, and a vehicle control composed of a differentiation medium supplemented with 0.1% DMSO (final concentration) was used as a negative control."}, "[3]": {"system": "endoplasmic reticulum stress markers CHOP and GRP78", "experiment": "Endoplasmic reticulum stress-suppressing effect in each type of cell (markers CHOP and GRP78), overall statement", "type": "cell-based", "details": "neuronal cells, adipocytes, hepatocytes, pancreatic cells; tunicamycin-induced; CHOP and GRP78 as index", "experimental": "Steviol was evaluated for its influence on endoplasmic reticulum stress in each type of cell by using endoplasmic reticulum stress markers CHOP and GRP78 as an index. The test cells used were neuronal cells (induced from PC12 cells), adipocytes (normal human subcutaneous preadipocytes, Cat. No. PT-5020, Lonza Group AG), hepatocytes (HepG2, Cat. No. JCRB1054, JCRB) and pancreatic cells (βTC6, ATCC® CRL-11506).\n4PA (P21005, Sigma-Aldrich Co., LLC) was dissolved in a medium and then added at a predetermined concentration to a differentiation medium or a growth medium.\nAfter the completion of endoplasmic reticulum stress induction treatment, the expression levels of CHOP and GRP78 were measured to evaluate the degree of endoplasmic reticulum stress. First, FasteLane lysate (RNA) was prepared for RNA extraction using FastLane Cell Probe kit (Cat. No. 216413, Qiagen N.V.). After removal of the medium, each well was washed by the addition of 125 μL of Buffer FCW and its immediate removal. Then, 50 μL of Cell processing mix was added to each well, followed by incubation at room temperature for 5 minutes to prepare FasteLane lysate. […]\nRT-PCR reaction was performed under conditions of 50° C. for 30 minutes, 95° C. for 15 minutes, and (94° C. for 15 seconds and 60° C. for 60 seconds)×40 cycles. […] A relative expression level was calculated by the ΔΔCt method. […]"}, "[4]": {"system": "neuronal cells (induced from PC12 cells)", "experiment": "Cytotoxicity of steviol to neuronal cells (differentiated PC12, WST-8)", "type": "cell-based, Rat", "details": "for Relative viable cell count (%): 2 days, differentiated PC12, Control=100%", "text": "PC12 cells (Cat. No. 88022401, ECACC) were precultured in a collagen IV-coated flask using the growth medium. […] A vehicle control composed of a test medium supplemented with 0.1% DMSO (final concentration) was used as a negative control."}, "CHOP [5]": {"system": "CHOP", "experiment": "CHOP expression in neuronal cells under endoplasmic reticulum stress (RT-PCR)", "type": "cell-based, Rat", "details": "pretreatment 1 h, tunicamycin 0.16 μM 24 h", "experimental": "Neuronal cells were prepared as follows. PC12 cells were reconstituted by seeding at 2×10^6 cells/flask to a collagen IV-coated flask, and precultured for 3 days in the growth medium in a CO2 incubator.\nas §2, §3"}, "CHOP [6]": {"system": "CHOP", "experiment": "CHOP expression in pancreatic cells (βTC6) under endoplasmic reticulum stress (RT-PCR)", "type": "cell-based, Mouse", "details": "pretreatment 4 h, tunicamycin 0.16 μM 24 h", "experimental": "as §2, §3"}, "CHOP [7]": {"system": "CHOP", "experiment": "CHOP expression in adipocytes under endoplasmic reticulum stress (RT-PCR)", "type": "cell-based, Human", "details": "pretreatment 24 h, tunicamycin 0.65 μM 24 h", "experimental": "as §1, §2, §3"}}, "data": [{"compound": "C=C1C[C@@]23CC[C@H]4[C@@](C)(CCC[C@@]4(C)C(=O)O)[C@@H]2CC[C@]1(O)C3", "note": "[Steviol]", "values": [{"measurement": "Expression level of GRP78 in adipocytes (relative to GAPDH, untreated=1)", "setting": "GRP78 [1]; steviol 6.25 μg/mL", "value": 4.46}, {"measurement": "Expression level of GRP78 in adipocytes (relative to GAPDH, untreated=1)", "setting": "GRP78 [1]; steviol 12.5 μg/mL", "value": 4.18}, {"measurement": "Expression level of GRP78 in adipocytes (relative to GAPDH, untreated=1)", "setting": "GRP78 [1]; steviol 25 μg/mL", "value": 4.06}, {"measurement": "Expression level of GRP78 in adipocytes (relative to GAPDH, untreated=1)", "setting": "GRP78 [1]; steviol 50 μg/mL", "value": 3.54}, {"measurement": "Expression level of GRP78 in pancreatic cells (relative to GAPDH, untreated=1)", "setting": "GRP78 [2]; steviol 6.25 μg/mL", "value": 2.10}, {"measurement": "Expression level of GRP78 in pancreatic cells (relative to GAPDH, untreated=1)", "setting": "GRP78 [2]; steviol 12.5 μg/mL", "value": 2.03}, {"measurement": "Expression level of GRP78 in pancreatic cells (relative to GAPDH, untreated=1)", "setting": "GRP78 [2]; steviol 25 μg/mL", "value": 1.80}, {"measurement": "Expression level of GRP78 in pancreatic cells (relative to GAPDH, untreated=1)", "setting": "GRP78 [2]; steviol 50 μg/mL", "value": 1.66}, {"measurement": "neurite elongation (in words)", "setting": "PC12 cells (clone HS); PC12 cells, varying concentrations of steviol", "value": "promoted neurite elongation in a concentration-dependent manner"}, {"measurement": "Relative neurite length (%)", "setting": "PC12 cells (clone HS); steviol 12.5 μg/mL", "value": 133.3, "unit": "%"}, {"measurement": "Relative neurite length (%)", "setting": "PC12 cells (clone HS); steviol 25 μg/mL", "value": 180.9, "unit": "%"}, {"measurement": "Relative neurite length (%)", "setting": "PC12 cells (clone HS); steviol 50 μg/mL", "value": 235.2, "unit": "%"}, {"measurement": "Relative neurite length (%)", "setting": "PC12 cells (clone HS); steviol 100 μg/mL", "value": 307.7, "unit": "%"}, {"measurement": "Relative neurite length (%)", "setting": "PC12 cells (clone HS); steviol 200 μg/mL", "value": 308.6, "unit": "%"}, {"measurement": "endoplasmic reticulum stress (in words)", "setting": "[3]", "value": "suppressed endoplasmic reticulum stress in each type of cell in a concentration-dependent manner"}, {"measurement": "cytotoxicity to neuronal cells (in words)", "setting": "[4]; 100 μg/mL steviol", "value": "no particular cytotoxicity to be noted was found"}, {"measurement": "Relative viable cell count (%)", "setting": "[4]; steviol 0.01 μg/mL", "value": 97.7, "unit": "%"}, {"measurement": "Relative viable cell count (%)", "setting": "[4]; steviol 0.1 μg/mL", "value": 104.4, "unit": "%"}, {"measurement": "Relative viable cell count (%)", "setting": "[4]; steviol 1 μg/mL", "value": 93.6, "unit": "%"}, {"measurement": "Relative viable cell count (%)", "setting": "[4]; steviol 10 μg/mL", "value": 91.4, "unit": "%"}, {"measurement": "Relative viable cell count (%)", "setting": "[4]; steviol 100 μg/mL", "value": 95.1, "unit": "%"}, {"measurement": "Expression level of CHOP in neuronal cells (relative to GAPDH, untreated=1)", "setting": "CHOP [5]; steviol 6.25 μg/mL", "value": 6.61}, {"measurement": "Expression level of CHOP in neuronal cells (relative to GAPDH, untreated=1)", "setting": "CHOP [5]; steviol 12.5 μg/mL", "value": 6.55}, {"measurement": "Expression level of CHOP in neuronal cells (relative to GAPDH, untreated=1)", "setting": "CHOP [5]; steviol 25 μg/mL", "value": 6.24}, {"measurement": "Expression level of CHOP in neuronal cells (relative to GAPDH, untreated=1)", "setting": "CHOP [5]; steviol 50 μg/mL", "value": 5.79}, {"measurement": "Expression level of CHOP in pancreatic cells (relative to GAPDH, untreated=1)", "setting": "CHOP [6]; steviol 6.25 μg/mL", "value": 2.56}, {"measurement": "Expression level of CHOP in pancreatic cells (relative to GAPDH, untreated=1)", "setting": "CHOP [6]; steviol 12.5 μg/mL", "value": 2.46}, {"measurement": "Expression level of CHOP in pancreatic cells (relative to GAPDH, untreated=1)", "setting": "CHOP [6]; steviol 25 μg/mL", "value": 2.21}, {"measurement": "Expression level of CHOP in pancreatic cells (relative to GAPDH, untreated=1)", "setting": "CHOP [6]; steviol 50 μg/mL", "value": 2.25}, {"measurement": "Expression level of CHOP in adipocytes (relative to GAPDH, untreated=1)", "setting": "CHOP [7]; steviol 6.25 μg/mL", "value": 3.49}, {"measurement": "Expression level of CHOP in adipocytes (relative to GAPDH, untreated=1)", "setting": "CHOP [7]; steviol 12.5 μg/mL", "value": 3.23}, {"measurement": "Expression level of CHOP in adipocytes (relative to GAPDH, untreated=1)", "setting": "CHOP [7]; steviol 25 μg/mL", "value": 3.15}, {"measurement": "Expression level of CHOP in adipocytes (relative to GAPDH, untreated=1)", "setting": "CHOP [7]; steviol 50 μg/mL", "value": 3.17}]}]}
